In ChEMBL document CHEMBL1201862, “PubChem BioAssay data set” (2004):
Active and inactive are the calls of the source. For most assays here, no stated cut-off is given here; in the data, actives have a measured EC50 and inactives only a lower limit.

Key:
[1] = fluconazole-exposed Candida albicans growth modulators – fluorescence, retest, confirmation (AID 2467); type: functional, cell-based
[2] = NIH-3T3 fibroblast cytotoxicity, dose response, cytotoxicity control, cell-based, fluorescence, Alamar Blue, secondary assay (AID 2327); type: functional;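 further: NIH-3T3 mouse fibroblasts cultured with fluconazole at 8 µg/mL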
[3] = Luminescence Cell-Based Dose Response HTS to Identify Activators of Luciferase Translation or Activity in H4 […] Cells. [Related pubchem assays: 1829 (Project Summary), 1814 (Primary HTS)]; type: functional
[4] = system: H4; test: Luminescence Cell-Based Dose Response HTS to Identify Activators of 5'UTR Stem-Loop Driven Prion Protein mRNA Translation in H4 Neuroglioblastoma Cells. [Related pubchem assays: 1829 (Project Summary), 1814 (Primary HTS)]; type: functional; settings: Homo sapiens
[5] = Luminescence Cell-Based Dose Confirmation HTS to Identify Activators of 5'UTR Stem-Loop Driven Alpha-Synuclein mRNA Translation in H4 Neuroglioblastoma Cells. [Related pubchem assays: 1829 (Project Summary), 1814 (Primary HTS)]; type: functional
[6] = system: H9c2; test: cells; type: functional, cell-based; settings: Rattus norvegicus, H9c2, Myocardium;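 further: confirmatory concentration-response retest of ultra-high-throughput screening hits for modulation of myocardial damage; cell death induced by hydrogen peroxide oxidative stress; compound pretreatment for 60 min then peroxide exposure for 2 h; potency is for protecting the cells against peroxide damage rather than for killing them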
[7] = Luminescence Cell-Based Dose Retest to Confirm Inhibitors of Cancer Stem Cells. [Related pubchem assays (depositor defined):AID2717, AID2721]; type: functional; settings: Homo sapiens
[8] = Trypanosoma cruzi growth suppression in host cells – NIH3T3 host cells, beta-gal luminescence, confirmation (AID 2044); type: functional, cell-based;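 further: intracellular parasites grown in NIH/3T3 mouse fibroblasts as host cells; luminescent beta-galactosidase reporter signal from transgenic T. cruzi replicating inside host cells; inhibitors lower the luminescence signal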
[9] = NIH3T3 cell viability loss – ATP luminescence, mouse fibroblasts, counter-screen, dose response (AID 2010); type: functional, cell-based;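 further: cells exposed to compound for about 90 hours before reading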
[10] = P. falciparum Dd2 growth inhibitors, dose response, SYBR Green, cherry-picked samples (AID 1159567); type: functional, cell-based
[11] = target: Luciferin 4-monooxygenase (Photinus pyralis, UniProt P08659); test: inhibition of purified Photinus pyralis luciferase – biochemical, luminescence, dose response (AID 1891)
[12] = Luminescence Cell-Based Dose Confirmation HTS to Identify Inhibitors of Platelet Dense Granule Release. [Related pubchem assays: 1663 (Primary HTS), 1678 (Summary of Project)]; type: functional
[13] = luciferase reporter signal suppression in cells – H4 neuroglioma cells, luminescence, dose response (AID 1990); type: functional, cell-based
[14] = target: Cytochrome P450 2C9 (Homo sapiens, UniProt P11712)
[15] = target: T1, Corticotropin-releasing factor receptor 2/Corticotropin-releasing factor-binding protein (Homo sapiens, UniProt P24387+Q13324); test: activators of CRF receptor 2 with binding protein – uHTS hits, confirmation (AID 602473); type: functional; settings: read-out: EC50_Mean
T1 sequence (Q13324 whole entry): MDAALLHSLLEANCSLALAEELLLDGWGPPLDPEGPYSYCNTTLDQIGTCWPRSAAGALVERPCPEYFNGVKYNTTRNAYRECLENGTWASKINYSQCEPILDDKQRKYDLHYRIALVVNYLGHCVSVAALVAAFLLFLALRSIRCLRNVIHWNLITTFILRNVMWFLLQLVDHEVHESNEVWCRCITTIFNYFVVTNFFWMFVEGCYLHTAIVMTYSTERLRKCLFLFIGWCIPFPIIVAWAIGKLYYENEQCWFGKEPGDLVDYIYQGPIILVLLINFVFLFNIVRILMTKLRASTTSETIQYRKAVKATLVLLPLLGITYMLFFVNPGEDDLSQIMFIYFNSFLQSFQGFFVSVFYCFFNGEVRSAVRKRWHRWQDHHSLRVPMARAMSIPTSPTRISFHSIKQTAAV
T1 sequence (P24387 whole entry): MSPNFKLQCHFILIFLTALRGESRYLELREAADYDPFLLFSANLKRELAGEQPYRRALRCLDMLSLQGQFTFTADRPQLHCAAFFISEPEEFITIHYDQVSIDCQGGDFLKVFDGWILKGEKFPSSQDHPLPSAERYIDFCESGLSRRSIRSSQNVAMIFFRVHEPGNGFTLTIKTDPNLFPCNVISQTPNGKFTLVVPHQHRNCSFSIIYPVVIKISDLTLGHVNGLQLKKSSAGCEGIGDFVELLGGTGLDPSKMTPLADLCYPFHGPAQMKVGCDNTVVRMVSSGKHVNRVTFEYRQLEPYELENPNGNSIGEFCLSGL

Luciferin 4-monooxygenase, sequence (P08659 whole entry): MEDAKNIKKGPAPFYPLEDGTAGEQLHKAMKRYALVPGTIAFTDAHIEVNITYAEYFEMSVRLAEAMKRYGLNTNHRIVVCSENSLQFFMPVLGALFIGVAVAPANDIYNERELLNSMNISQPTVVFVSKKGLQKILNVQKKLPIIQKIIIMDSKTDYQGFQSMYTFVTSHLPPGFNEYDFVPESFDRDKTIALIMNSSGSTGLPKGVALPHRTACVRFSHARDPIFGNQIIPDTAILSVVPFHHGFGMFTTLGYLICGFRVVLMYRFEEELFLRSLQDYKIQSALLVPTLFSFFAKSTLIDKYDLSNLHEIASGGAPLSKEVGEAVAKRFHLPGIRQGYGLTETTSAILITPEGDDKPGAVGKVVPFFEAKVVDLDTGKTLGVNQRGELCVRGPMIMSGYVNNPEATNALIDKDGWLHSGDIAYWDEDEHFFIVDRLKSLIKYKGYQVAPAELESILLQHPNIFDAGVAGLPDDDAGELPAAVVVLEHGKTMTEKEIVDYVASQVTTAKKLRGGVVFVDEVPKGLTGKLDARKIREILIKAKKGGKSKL
Cytochrome P450 2C9, sequence (P11712 whole entry): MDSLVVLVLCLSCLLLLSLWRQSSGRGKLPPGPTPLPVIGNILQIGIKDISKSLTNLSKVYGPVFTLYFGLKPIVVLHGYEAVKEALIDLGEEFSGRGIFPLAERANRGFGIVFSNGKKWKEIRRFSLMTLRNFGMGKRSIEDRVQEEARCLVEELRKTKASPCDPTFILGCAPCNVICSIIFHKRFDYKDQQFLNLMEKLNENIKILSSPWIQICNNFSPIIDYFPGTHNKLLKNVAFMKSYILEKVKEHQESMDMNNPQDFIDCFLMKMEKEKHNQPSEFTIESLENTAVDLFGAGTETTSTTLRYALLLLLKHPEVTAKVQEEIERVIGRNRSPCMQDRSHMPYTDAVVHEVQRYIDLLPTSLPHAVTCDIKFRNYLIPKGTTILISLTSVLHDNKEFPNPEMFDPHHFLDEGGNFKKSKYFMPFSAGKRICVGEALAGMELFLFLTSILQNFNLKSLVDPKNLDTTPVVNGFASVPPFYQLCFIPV

## Cc1ccc2occ(/C=N/NC(=O)c3ccccc3O)c(=O)c2c1
[1]
  EC50: > 38 µM (not active)
[2]
  EC50: > 150 µM (inconclusive)

## N#C/C(=C\c1ccc(Cl)cc1)c1nc2ccc[nH]c-2n1
[3]
  EC50: 14 µM (active)
[4]
  EC50: 44 µM (active)
[5]
  EC50: > 120 µM (not active)

## O=C(COc1ccccc1F)Nc1nc(-c2ccccn2)cs1
[6]
  IC50: > 79 µM (inactive)

## Cn1cccc1/C=C1\SC(=S)N(Nc2ccccc2)C1=O
[7]
  AC50: 0.978 µM (active)
[8]
  EC50: 2.67 µM (active)
[9]
  EC50: 3.85 µM (active)

## COc1ccc(-n2c(S)nnc2-c2cccc(C)c2[N+](=O)[O-])cc1
[1]
  EC50: 1.7 µM (active)
[2]
  EC50: > 150 µM (inactive)

## O=C1CN(S(=O)(=O)c2ccccc2)C[C@H]2[C@H](c3ccc(C#CCc4ccccc4)cc3)[C@@H](CO)N12
[10]
  AC50: 4.06 µM (active)

## CC1CCN(CCCNC(=O)c2nnc(O)c3ccccc23)CC1
[6]
  IC50: 48.9 µM (inactive)

## CNC(S)=NCCc1ccc(OC)c(OC)c1
[11]
  EC50: > 112 µM (not active)
[12]
  EC50: > 112 µM (not active)

## CCOc1ccccc1-c1nc(C(N)=O)c2nc(O)n(-c3cccc(C)c3)c2n1
[11]
  EC50: > 112 µM (not active)
[12]
  EC50: > 112 µM (not active)

## COc1ccc(NC(=O)N(C)C[C@H]2OCc3ccccc3-c3c(n(C)c4ccccc34)C(=O)N([C@H](C)CO)C[C@@H]2C)c(OC)c1
[10]
  AC50: 7.42 µM (active)

## O=C(NCCSc1ccccc1)c1cncc(Br)c1
[3]
  EC50: 5.57 µM (active)
[4]
  EC50: 9.26 µM (active)
[5]
  EC50: 30.1 µM (active)

## C=CCN1c2ccccc2[C@]23C[C@@H](C(=O)OC)N(C(=O)c4cc(C)oc4C)C2=NC(C(=O)OC)=C(C(=O)OC)[C@H]13
[3]
  EC50: > 120 µM (not active)
[4]
  EC50: > 120 µM (not active)
[5]
  EC50: 9.07 µM (active)

## Cc1nn(-c2ccccc2)c(C)c1/C=N/NC(=O)c1cc(C2CC2)[nH]n1
[6]
  IC50: > 79 µM (inactive)

## COc1cccc(NC(=O)CN(C)C(=O)CCCc2nc(O)c3ccccc3n2)c1
[6]
  IC50: > 79 µM (inactive)

## CSc1nnc2c(n1)c(C)nn2-c1ccc(C)cc1
[3]
  EC50: 16.1 µM (active)
[4]
  EC50: 4.22 µM (active)
[5]
  EC50: 0.114 µM (active)

## NC(=O)N1CCC2(CC1)NC(=O)N(c1ccccc1)N2
[2]
  EC50: > 150 µM (inconclusive)

## CN(C)S(=O)(=O)c1cccc(NC(=O)COC(=O)c2ccc([N+](=O)[O-])o2)c1
[6]
  IC50: 10.3 µM (active)

## COc1ccc(S(=O)(=O)N[C@@H]2CC[C@H](CCn3cc(-c4ccccc4F)nn3)O[C@@H]2CO)cc1
[10]
  AC50: 8.67 µM (active)

## CC1CCN(C(=O)COC(=O)c2nnc(O)c3ccccc23)CC1
[6]
  IC50: > 79 µM (inactive)

## CC(=O)Oc1ccc(-c2csc(Nc3ccc(Cl)cn3)n2)cc1
[7]
  AC50: 5.14 µM (active)

## C/C(=N\NC(=O)c1cccnc1)c1ccc(OC2OCCOC2Oc2ccc(/C(C)=N/NC(=O)c3cccnc3)cc2)cc1 (stereo unspecified)
[6]
  IC50: > 79 µM (inactive)

## CCCOc1ccc(C2=NNC(=O)CC2)cc1
[13]
  EC50: < 0.1 µM (active)

## COC(=O)c1sc(NC(=O)c2c(C)noc2C)nc1C
[11]
  EC50: 30.6 µM (active)
[12]
  EC50: > 112 µM (not active)

## CCCCc1c(C)nn(-c2nnc3c4ccccc4n(C)c3n2)c1C
[3]
  EC50: 5.26 µM (active)
[4]
  EC50: 15.8 µM (active)
[5]
  EC50: > 120 µM (not active)

## CCC1SC(NC(=O)NC2CCCCC2)=NC1=O (stereo unspecified)
[3]
  EC50: 27.5 µM (active)
[4]
  EC50: 0.115 µM (active)
[5]
  EC50: 15.8 µM (active)

## O=C(N/N=C/c1ccncc1)c1ccc(COc2cccc3cccnc23)cc1
[6]
  IC50: 14.3 µM (active)

## Cc1nn2c(nc(O)c3ccccc32)c1C=O
[1]
  EC50: 2.16 µM (active)
[14]
  AC50: 15.8 µM (inconclusive)
[2]
  EC50: > 160 µM (inactive)

## CCNS(=O)(=O)c1ccc(NC(=O)Nc2cccc(C(F)(F)F)c2)cc1
[7]
  AC50: 7.58 µM (active)
[8]
  EC50: 3.63 µM (active)
[9]
  EC50: > 60 µM (not active)

## O=C(CC1Oc2ccccc2NC1=O)NC1CC1 (stereo unspecified)
[11]
  EC50: > 112 µM (not active)
[12]
  EC50: > 112 µM (not active)

## COc1ccc(CN(C)C(=O)C(Cc2ccccc2)NC(=O)c2ccccc2)cc1F (stereo unspecified)
[6]
  IC50: > 79 µM (inactive)

## CCc1ccc(CNC(=O)C2CCN(c3nnc(C)c4c(C)n(-c5ccc(C)cc5)nc34)CC2)cc1
[7]
  AC50: 3.85 µM (active)

## Cc1ccc(C2NC(=O)c3ccccc3N2)s1 (stereo unspecified)
[3]
  EC50: 10.5 µM (active)
[4]
  EC50: 11.8 µM (active)
[5]
  EC50: > 120 µM (not active)

## O=C(c1ccc2c(c1)OCO2)N1CCC2(CC1)Oc1ccc(Cl)cc1C(=O)C21CC(c2cccnc2)=NO1 (stereo unspecified)
[1]
  EC50: 2.08 µM (active)
[2]
  EC50: > 150 µM (inactive)

## CC(=O)c1cccc(NC(=O)COC(=O)[C@@H](NC(=O)OCc2ccccc2)C(C)C)c1
[11]
  EC50: > 112 µM (not active)
[12]
  EC50: > 112 µM (not active)

## COc1ccc2c3c([nH]c2c1)[C@@H](CO)N(Cc1ccccc1F)CC31CCN(C(=O)C2CCOCC2)CC1
[10]
  AC50: 6.46 µM (active)

## CC1CCC2C(=O)N(c3ccc(NC4CCCCC4)c([N+](=O)[O-])c3)C(=O)C2C1 (stereo unspecified)
[7]
  AC50: < 0.16 µM (active)

## CSc1ccc(C2c3[nH]c4ccccc4c3CCN2C(=O)c2ccnn2C)cc1 (stereo unspecified)
[1]
  EC50: 2.7 µM (active)
[2]
  EC50: > 150 µM (inactive)

## Cc1nnc(NC(=O)c2c(-c3ccccc3Cl)noc2C)s1
[1]
  EC50: 4.42 µM (active)
[2]
  EC50: 32.1 µM (active)

## O=C(c1ccccc1)N1CCN(CC#Cc2ccccc2)CC1
[3]
  EC50: 9.34 µM (active)
[4]
  EC50: 6.67 µM (active)
[5]
  EC50: 8.44 µM (active)

## O=c1c2ccccc2nc(-c2ccco2)n1Cc1ccccc1
[3]
  EC50: 8.08 µM (active)
[5]
  EC50: 34.1 µM (active)

## C=CCn1c[n+](CC(=O)c2ccc(Br)s2)c2ccccc21
[1]
  EC50: > 38 µM (not active)
[2]
  EC50: > 160 µM (inactive)

## NC(=NOC(=O)c1ccccc1Cl)c1nonc1N
[11]
  EC50: 1.11 µM (active)
[12]
  EC50: 4.54 µM (active)

## CO[C@@H]1CN(C)C(=O)c2cc(NC(=O)Nc3cccc(Cl)c3)ccc2OC[C@@H](C)NC[C@@H]1C
[10]
  AC50: 9.36 µM (active)

## CCc1nc(NC(C)C)c2oc3ccccc3c2n1
[11]
  EC50: > 112 µM (not active)
[12]
  EC50: > 112 µM (not active)

## Cc1[nH]c2ccccc2c1C(Nc1nccs1)c1ccncc1 (stereo unspecified)
[11]
  EC50: > 112 µM (not active)
[12]
  EC50: 14.6 µM (active)

## Cc1ccc(NC(S)=Nc2cccc3cnccc23)cc1C
[7]
  AC50: 62.1 µM (active)

## O=Nc1c(O)n(Cc2c(Cl)cccc2Cl)c2ccccc12
[11]
  EC50: > 112 µM (not active)
[15]
  EC50: 4.67 µM (active)
[12]
  EC50: > 112 µM (not active)

## COc1ccc2nc(O)c(CN(Cc3ccco3)Cc3nnnn3Cc3ccccc3)cc2c1
[6]
  IC50: > 79 µM (inactive)

## Clc1ccccc1Nc1ncnc(-n2cccc2)n1
[3]
  EC50: 1.7 µM (active)
[4]
  EC50: 6.97 µM (active)
[5]
  EC50: 0.153 µM (active)

## COc1ccc2nc(O)c(CN(CCc3ccccc3)Cc3nnnn3CC3CCCO3)cc2c1 (stereo unspecified)
[6]
  IC50: 14.6 µM (active)
